± gives the expanded uncertainty stated by the source.
Experiment: activity coefficient (dimensionless); of the first substance listed, at infinite dilution; xn = mol fraction of the nth substance listed
Settings: 101 kPa, Liquid, Chromatography, x1 = 0

| Structure (SMILES) | activity coefficient (318.15 K) | activity coefficient (328.15 K) | activity coefficient (338.15 K) | activity coefficient (348.15 K) | activity coefficient (358.15 K) | activity coefficient (368.15 K) | activity coefficient (378.15 K) | activity coefficient (308.15 K) |
| --- | --- | --- | --- | --- | --- | --- | --- | --- |
| CCO [ethanol] + O=S(=O)([N-]S(=O)(=O)C(F)(F)F)C(F)(F)F.OCCC[n+]1ccccc1 | 1.16 ± 0.07 | 1.11 ± 0.07 | 1.06 ± 0.07 | 1.02 ± 0.06 | 0.984 ± 0.062 | 0.949 ± 0.06 | 0.919 ± 0.058 | – |
| Cc1cccc(C)c1 [1,3-dimethylbenzene] + O=S(=O)([N-]S(=O)(=O)C(F)(F)F)C(F)(F)F.OCCC[n+]1ccccc1 | 3.58 ± 0.24 | 3.58 ± 0.24 | 3.59 ± 0.24 | 3.6 ± 0.25 | 3.6 ± 0.25 | 3.61 ± 0.25 | 3.62 ± 0.25 | – |
| C=CCCCC [hex-1-ene] + O=S(=O)([N-]S(=O)(=O)C(F)(F)F)C(F)(F)F.OCCC[n+]1ccccc1 | 21.2 ± 1.4 | 19.7 ± 1.3 | 18.4 ± 1.3 | 17.3 ± 1.2 | 16.4 ± 1.1 | – | – | 22.7 ± 1.6 |
| COC(C)(C)C [2-methoxy-2-methylpropane] + O=S(=O)([N-]S(=O)(=O)C(F)(F)F)C(F)(F)F.OCCC[n+]1ccccc1 | 2.74 ± 0.19 | 2.83 ± 0.19 | 2.91 ± 0.2 | 3.01 ± 0.2 | 3.08 ± 0.21 | 3.18 ± 0.22 | – | 2.63 ± 0.18 |
| C#CCCCC [1-hexyne] + O=S(=O)([N-]S(=O)(=O)C(F)(F)F)C(F)(F)F.OCCC[n+]1ccccc1 | 6.25 ± 0.43 | 6.13 ± 0.42 | 6 ± 0.41 | 5.91 ± 0.4 | 5.8 ± 0.4 | 5.72 ± 0.39 | – | 6.38 ± 0.43 |
| CCCO [propan-1-ol] + O=S(=O)([N-]S(=O)(=O)C(F)(F)F)C(F)(F)F.OCCC[n+]1ccccc1 | 1.6 ± 0.11 | 1.52 ± 0.1 | 1.46 ± 0.1 | 1.39 ± 0.09 | 1.34 ± 0.09 | 1.28 ± 0.08 | 1.24 ± 0.08 | – |
| CCCCCCCC [octane] + O=S(=O)([N-]S(=O)(=O)C(F)(F)F)C(F)(F)F.OCCC[n+]1ccccc1 | 116 ± 8 | 102 ± 7 | 91.1 ± 6.2 | 81.3 ± 5.6 | 73.6 ± 5 | 67.5 ± 4.6 | – | 130 ± 9 |
| C#CCCCCC [1-heptyne] + O=S(=O)([N-]S(=O)(=O)C(F)(F)F)C(F)(F)F.OCCC[n+]1ccccc1 | 9.81 ± 0.67 | 9.53 ± 0.65 | 9.21 ± 0.63 | 9 ± 0.61 | 8.74 ± 0.6 | 8.55 ± 0.58 | – | 10.1 ± 0.7 |
| CCCCCCCCCC [decane] + O=S(=O)([N-]S(=O)(=O)C(F)(F)F)C(F)(F)F.OCCC[n+]1ccccc1 | 284 ± 20 | 245 ± 17 | 214 ± 15 | 190 ± 13 | 168 ± 12 | 150 ± 10 | – | 327 ± 22 |
| C1=CCCCC1 [cyclohexene] + O=S(=O)([N-]S(=O)(=O)C(F)(F)F)C(F)(F)F.OCCC[n+]1ccccc1 | 11 ± 0.8 | 10.4 ± 0.7 | 9.81 ± 0.67 | 9.31 ± 0.64 | 8.92 ± 0.61 | 8.52 ± 0.58 | – | 11.7 ± 0.8 |
| CCC(C)CC [3-methylpentane] + O=S(=O)([N-]S(=O)(=O)C(F)(F)F)C(F)(F)F.OCCC[n+]1ccccc1 | 40 ± 2.7 | 36.6 ± 2.5 | 33.3 ± 2.3 | 30.9 ± 2.1 | 28.5 ± 1.9 | – | – | 44 ± 3 |
| Cc1ccccc1C [1,2-dimethylbenzene] + O=S(=O)([N-]S(=O)(=O)C(F)(F)F)C(F)(F)F.OCCC[n+]1ccccc1 | 3.11 ± 0.21 | 3.12 ± 0.21 | 3.13 ± 0.21 | 3.13 ± 0.21 | 3.14 ± 0.21 | 3.15 ± 0.21 | 3.15 ± 0.21 | – |
| CCC(C)(C)C [2,2-dimethylbutane] + O=S(=O)([N-]S(=O)(=O)C(F)(F)F)C(F)(F)F.OCCC[n+]1ccccc1 | 37.3 ± 2.6 | 33.9 ± 2.3 | 30.9 ± 2.1 | 28.5 ± 1.9 | 26.3 ± 1.8 | – | – | 41 ± 3 |
| Cc1ccccc1 [toluene] + O=S(=O)([N-]S(=O)(=O)C(F)(F)F)C(F)(F)F.OCCC[n+]1ccccc1 | 2.36 ± 0.16 | 2.37 ± 0.16 | 2.38 ± 0.16 | 2.39 ± 0.16 | 2.4 ± 0.16 | 2.41 ± 0.16 | 2.42 ± 0.16 | – |
| C1CCCC1 [cyclopentane] + O=S(=O)([N-]S(=O)(=O)C(F)(F)F)C(F)(F)F.OCCC[n+]1ccccc1 | 14.6 ± 1 | 13.5 ± 0.9 | 12.5 ± 0.9 | 11.7 ± 0.8 | 11.1 ± 0.8 | 10.4 ± 0.7 | – | 15.8 ± 1.1 |
| C1CCCCC1 [cyclohexane] + O=S(=O)([N-]S(=O)(=O)C(F)(F)F)C(F)(F)F.OCCC[n+]1ccccc1 | 23.2 ± 1.6 | 21.1 ± 1.4 | 19.4 ± 1.3 | 17.9 ± 1.2 | 16.7 ± 1.1 | 15.5 ± 1.1 | – | 25.5 ± 1.7 |
| CCCCO [butan-1-ol] + O=S(=O)([N-]S(=O)(=O)C(F)(F)F)C(F)(F)F.OCCC[n+]1ccccc1 | 2.27 ± 0.15 | 2.14 ± 0.15 | 2.02 ± 0.14 | 1.91 ± 0.13 | 1.82 ± 0.12 | 1.73 ± 0.12 | 1.67 ± 0.11 | – |
| c1ccsc1 [thiophene] + O=S(=O)([N-]S(=O)(=O)C(F)(F)F)C(F)(F)F.OCCC[n+]1ccccc1 | 1.27 ± 0.08 | 1.28 ± 0.08 | 1.29 ± 0.08 | 1.29 ± 0.08 | 1.3 ± 0.08 | 1.31 ± 0.09 | 1.31 ± 0.09 | – |
| O [water] + O=S(=O)([N-]S(=O)(=O)C(F)(F)F)C(F)(F)F.OCCC[n+]1ccccc1 | 1.53 ± 0.1 | 1.42 ± 0.09 | 1.33 ± 0.09 | 1.24 ± 0.08 | 1.17 ± 0.07 | 1.1 ± 0.07 | 1.03 ± 0.06 | – |
| CCC(=O)CC [pentan-3-one] + O=S(=O)([N-]S(=O)(=O)C(F)(F)F)C(F)(F)F.OCCC[n+]1ccccc1 | 0.936 ± 0.059 | 0.963 ± 0.061 | 0.991 ± 0.062 | 1.02 ± 0.06 | 1.04 ± 0.07 | 1.07 ± 0.07 | 1.09 ± 0.07 | – |
| CCOCC [diethyl ether] + O=S(=O)([N-]S(=O)(=O)C(F)(F)F)C(F)(F)F.OCCC[n+]1ccccc1 | 2.77 ± 0.19 | 2.82 ± 0.19 | 2.87 ± 0.2 | 2.91 ± 0.2 | 2.97 ± 0.2 | 3.01 ± 0.2 | – | 2.71 ± 0.18 |
| C=CCCC [1-pentene] + O=S(=O)([N-]S(=O)(=O)C(F)(F)F)C(F)(F)F.OCCC[n+]1ccccc1 | 13.5 ± 0.9 | 12.7 ± 0.9 | 12 ± 0.8 | 11.5 ± 0.8 | – | – | – | 14.2 ± 1 |
